Test results from ChEMBL document CHEMBL4680194, “Synthesis and biological evaluation of 1,2,4-triazole derivatives as potential neuroprotectant against ischemic brain injury” (Eur J Med Chem, 2020).
Active and inactive are the calls of the source. The rule behind the calls is not given here.

Legend:
PC-12 [1] = test: Inhibition of SNP-induced apoptosis in rat PC-12 cells assessed as reduction in condensed nuclei incubated for 1 hr followed by SNP stimulation and measured after 24 hrs by Hoechst 33258 staining based fluorescence microscopy; type: functional, cell-based; conditions: dose 2.5-10 µM, time 25.0 hrs
[2] = target: T1, Nuclear factor erythroid 2-related factor 2 (Rattus norvegicus) (UniProt O54968); test: Induction of Nrf2 nuclear translocation in rat PC-12 cells assessed as SNP-induced GSH-px level at 5 uM incubated for 1 hr followed by SNP stimulation and measured after 24 hrs (reference value: 37.70 +/- 2.88 mU/mg); type: cell-based; conditions: time 25.0 hrs
T1 sequence (whole entry): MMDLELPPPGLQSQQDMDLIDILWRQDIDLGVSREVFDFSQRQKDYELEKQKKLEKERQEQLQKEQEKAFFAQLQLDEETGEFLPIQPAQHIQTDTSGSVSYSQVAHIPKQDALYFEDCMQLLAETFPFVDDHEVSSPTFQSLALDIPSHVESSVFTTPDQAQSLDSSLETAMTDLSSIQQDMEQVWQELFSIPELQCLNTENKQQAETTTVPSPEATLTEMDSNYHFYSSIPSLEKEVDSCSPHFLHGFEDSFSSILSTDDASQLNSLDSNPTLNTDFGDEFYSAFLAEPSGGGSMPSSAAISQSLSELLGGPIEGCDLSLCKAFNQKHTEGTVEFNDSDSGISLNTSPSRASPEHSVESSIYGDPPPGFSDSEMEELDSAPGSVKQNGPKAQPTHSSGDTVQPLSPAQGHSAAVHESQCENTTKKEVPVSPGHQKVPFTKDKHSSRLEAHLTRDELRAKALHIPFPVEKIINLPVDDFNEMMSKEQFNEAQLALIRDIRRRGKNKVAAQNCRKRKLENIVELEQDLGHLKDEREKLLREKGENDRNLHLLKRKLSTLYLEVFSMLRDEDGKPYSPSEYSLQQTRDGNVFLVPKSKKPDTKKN

[3] = target: T1, Nuclear factor erythroid 2-related factor 2 (Rattus norvegicus); test: Induction of Nrf2 nuclear translocation in rat PC-12 cells assessed as SNP-induced SOD level at 2.5 uM incubated for 1 hr followed by SNP stimulation and measured after 24 hrs (reference value: 23.74 +/- 2.02 U/mg); type: cell-based; conditions: time 25.0 hrs
[4] = Oral bioavailability in Sprague-Dawley rat at 20 mg/kg measured upto 24 hrs by LC-MS/MS analysis; type: ADME, organism-based; conditions: in vivo
PC-12 [5] = test: Effect on Nrf2 in rat PC-12 cells at 1.25 to 5 uM incubated for 24 hrs by Western blot analysis; type: functional, cell-based; conditions: dose 1.25-5 µM
PC-12 [6] = test: Antioxidant activity in rat PC-12 cells assessed as reduction in H2O2-induced ROS level incubated for 1 hr followed by H2O2 stimulation and measured after 5 hrs by DCFH-DA staining based fluorescence microscopy; type: functional, cell-based; conditions: dose 2.5-10 µM, time 6.0 hrs
[7] = target: T1, Nuclear factor erythroid 2-related factor 2 (Rattus norvegicus); test: Induction of Nrf2 nuclear translocation in rat PC-12 cells assessed as SNP-induced GSH level incubated for 1 hr followed by SNP stimulation and measured after 24 hrs; type: cell-based; conditions: dose 2.5-10 µM, time 25.0 hrs
Rattus norvegicus [8] = test: Neuroprotective activity in Sprague-Dawley rat model of middle cerebral artery occlusion-induced ischemic injury assessed as decrease in TNF-alpha level at 3 to 30 mg/kg, ip administered TID and measured after 24 hrs by ELISA; type: functional, organism-based; conditions: dose 3-30 mg/kg
PC-12 [9] = test: Cytoprotective activity against SNP-induced cell death in rat PC-12 cells assessed as increase in cell viability at 10 uM incubated for 1 hr followed by SNP stimulation and measured after 24 hrs by MTT assay; type: functional; conditions: time 25 hrs
[10] = target: T1, Nuclear factor erythroid 2-related factor 2 (Rattus norvegicus); test: Induction of Nrf2 nuclear translocation in rat PC-12 cells assessed as SNP-induced SOD level at 5 uM incubated for 1 hr followed by SNP stimulation and measured after 24 hrs (reference value: 23.74 +/- 2.02 U/mg); type: cell-based; conditions: time 25.0 hrs
[11] = target: T1, Nuclear factor erythroid 2-related factor 2 (Rattus norvegicus); test: Induction of Nrf2 nuclear translocation in rat PC-12 cells assessed as SNP-induced SOD level at 10 uM incubated for 1 hr followed by SNP stimulation and measured after 24 hrs (reference value: 23.74 +/- 2.02 U/mg); type: cell-based; conditions: time 25.0 hrs
[12] = MRT in Sprague-Dawley rat at 2 mg/kg, iv measured upto 24 hrs by LC-MS/MS analysis; type: ADME, organism-based; conditions: in vivo
[13] = target: T1, Nuclear factor erythroid 2-related factor 2 (Rattus norvegicus); test: Induction of Nrf2 nuclear translocation in rat PC-12 cells assessed as H2O2-induced GSH level incubated for 1 hr followed by H2O2 stimulation and measured after 5 hrs; type: cell-based; conditions: dose 2.5-10 µM, time 6.0 hrs
[14] = target: T1, Nuclear factor erythroid 2-related factor 2 (Rattus norvegicus); test: Induction of Nrf2 nuclear translocation in rat PC-12 cells assessed as decrease in cytoplasmic Nrf2 level at 1.25 to 5 uM incubated for 24 hrs by Western blot analysis; type: cell-based; conditions: dose 1.25-5 µM
[15] = Half life in Sprague-Dawley rat at 2 mg/kg, iv measured upto 24 hrs by LC-MS/MS analysis; type: ADME, organism-based; conditions: in vivo
[16] = Half life in Sprague-Dawley rat at 20 mg/kg, po measured upto 24 hrs by LC-MS/MS analysis; type: ADME, organism-based; conditions: in vivo
[17] = Toxicity in […] assessed as body weight at 400 mg/kg, ip measured on day 7 (reference value: 24.4 to 28.4 g); type: organism-based; conditions: in vivo, 168 h, time 7 day
[18] = Toxicity in […] assessed as behavior changes at 400 mg/kg, ip observed after 12 hrs; type: organism-based; conditions: in vivo
[19] = target: T1, Nuclear factor erythroid 2-related factor 2 (Rattus norvegicus); test: Induction of Nrf2 nuclear translocation in rat PC-12 cells assessed as H2O2-induced SOD level at 5 uM incubated for 1 hr followed by H2O2 stimulation and measured after 5 hrs (reference value: 29.69 +/- 1.65 U/mg); type: cell-based; conditions: time 6.0 hrs
Rattus norvegicus [20] = test: Neuroprotective activity in Sprague-Dawley rat model of middle cerebral artery occlusion-induced ischemic injury assessed as infarction volume at 3 mg/kg, ip administered TID and measured after 6 hrs by TTC staining based assay (reference value: 28.67 +/- 2.90 %); type: functional
[21] = target: T1, Nuclear factor erythroid 2-related factor 2 (Rattus norvegicus); test: Induction of Nrf2 nuclear translocation in rat PC-12 cells assessed as H2O2-induced GSH level at 2.5 uM incubated for 1 hr followed by H2O2 stimulation and measured after 5 hrs (reference value: 65.52 +/- 1.44 nM/mg); type: cell-based; conditions: time 6.0 hrs
PC-12 [22] = test: Cytoprotective activity against H2O2-induced cell death in rat PC-12 cells assessed as increase in cell viability incubated for 1 hr followed by H2O2 stimulation and measured after 5 hrs by LDH assay; type: functional, cell-based; conditions: time 6.0 hrs
PC-12 [23] = test: Inhibition of SNP-induced apoptosis in rat PC-12 cells assessed as effect on cell morphology incubated for 1 hr followed by SNP stimulation and measured after 24 hrs by Hoechst 33258 staining based fluorescence microscopy; type: functional; conditions: dose 2.5-10 µM, time 25.0 hrs
PC-12 [24] = test: Cytoprotective activity against SNP-induced cell death in rat PC-12 cells assessed as increase in cell viability incubated for 1 hr followed by SNP stimulation and measured after 24 hrs by LDH assay; type: functional, cell-based; conditions: time 25.0 hrs
[25] = Toxicity in […] assessed as body weight at 400 mg/kg, ip measured on day 5 (reference value: 24.4 to 28.4 g); type: organism-based; conditions: in vivo, 120 h, time 5 day
[26] = target: T1, Nuclear factor erythroid 2-related factor 2 (Rattus norvegicus); test: Induction of Nrf2 nuclear translocation in rat PC-12 cells assessed as H2O2-induced GSH-px level incubated for 1 hr followed by H2O2 stimulation and measured after 5 hrs; type: cell-based; conditions: dose 2.5-10 µM, time 6.0 hrs

COc1ccc(-c2nc(-c3ccccc3O)n(-c3ccc(S(N)(=O)=O)cc3)n2)c(O)c1
inhibition (PC-12 [1]): Dose-dependent effect | Activity [2]: 44.4 mU/mg | Activity [3]: 34.6 U/mg | bioavailability [4]: 60.8% | Activity (PC-12 [5]): inactive | inhibition (PC-12 [6]): Dose-dependent effect | Activity [7]: Dose-dependent effect | Activity (Rattus norvegicus [8]): Active | Activity (PC-12 [9]): 30% | Activity [10]: 34.9 U/mg | Activity [11]: 39.1 U/mg | MRT [12]: 2.37 h | Activity [13]: Dose-dependent effect | Activity [14]: Active | half-life [15]: 5.11 h | half-life [16]: 4.26 h | Activity [17]: 25.7 g | Activity [18]: Non-Toxic | Activity [19]: 38.9 U/mg | Activity (Rattus norvegicus [20]): 20.52% | Activity [21]: 70.4 nM/mg | Activity (PC-12 [22]): Dose-dependent effect | inhibition (PC-12 [23]): Dose-dependent effect | Activity (PC-12 [24]): Dose-dependent effect | Activity [25]: 24.9 g | Activity [26]: Dose-dependent effect
